In brackets after ≈: the same amount, converted by molar mass. One block for each molecule: values may come before it.
Legend:
human C3b = target: T1, human C3b (Homo sapiens, UniProt P01024); assay: SPR binding affinity and kinetics with C3b; conditions: 25° C., 1:1 Langmuir model; read-out: ka, association constant
T1 construct: purchased Complement Technology, Inc., Tyler, Tex

[1] = Lys cleavage fragments in NHP plasma after s.c. injection (UPLC-ESI-MS); format: in vivo, cynomolgus monkeys; conditions: 4 h after the s.c. injection of Cp40-KKK, one monkey
[2] = test system: classical pathway activation (C3b deposition); assay: Classical pathway activation ELISA (C3b deposition) with or without rabbit vitreous; format: biochemical, human; conditions: in the absence of vitreous
Description: An alternative explanation to the one presented above is that the vitreous contains additional unidentified factors that associate with the Cp40-KKK analog. To investigate whether an unidentified vitreous factor impacts the complement inhibitory activity of lysine containing compounds, complement activation assays were performed using vitreous samples. Briefly, human plasma was incubated with OVA-anti-OVA immune-complexes in the presence of serial dilutions of the Cp40-based analogs mixed with rabbit vitreous. Levels of classical pathway activation (C3b deposition) were determined by ELISA using a polyclonal anti-human C3 antibody conjugated with HRP (MP Biomedicals, Solon, Ohio) (FIG. 20).

[3] = Solubility of Cp40-based analogs in PBS; conditions: for pH of the peptide solution in PBS: at the solubility concentration; for solubility: PBS, pH 7.4, Conc. (solubility in PBS), PBS (pH 7.4)
[4] = Pharmacokinetics after single i.v. injection; set-up: species or system cynomolgus monkeys; conditions: cynomolgus monkey, in vivo, iv
Description: In vivo pharmacokinetic studies were conducted, in which cynomolgus monkeys were administered single i.v. injections of mPEG(1k)-Cp40, mPEG(3k)-Cp40, Cp40-KK, or Cp40-KKK.

[5] = Residence time in the vitreous after intravitreal injection (WES / SPR competition assay); format: in vivo, cynomolgus monkeys; conditions: single i.v.t. injection 0.5 mg; days 14-90
Description: To determine the residence time of mPEG(3k)-Cp40, mPEG(1k)-Cp40, Cp40-KK, and Cp40-KKK in the vitreous of cynomolgus macaques, these Cp40-based analogs were administered intravitreally (i.v.t.) to the animals after induction of light ketamine anesthesia (10-15 mg/kg, by intramuscular injection (i.m.)) and dilation of the pupils with tropicamide/phenylephrine ophthalmic solution (see Table 6 for study design).
For i.v.t. injection, the cynomolgus monkeys were anesthetized with a combination of ketamine (15-25 mg/kg, i.m.) and xylazine (2 mg/kg, i.m.) and the eye was cleaned with povidone-iodine solution. After application of oxybuprocaine hydrochloride solution (Benoxil® ophthalmic solution 0.4%) to the cornea as a local anesthetic, the Cp40-based analogs were administered to the animals by i.v.t. injection into either the right (G1, G3) or left (G2, G4) eye of each animal. Immediately following each injection, a single topical dose of 0.5% levofloxacin was administered. After i.v.t. injection of mPEG(3k)-Cp40, mPEG(1k)-Cp40, Cp40-KK, and Cp40-KKK, vitreous fluid samples (about 50 μL each) were withdrawn from Cp40-based analog-treated eyes on days 14, 28, 42, (G1, G2, G3, G4), 56, 73, 90 (G1, G2) (this was done either three times or six times). Samples were collected on ice and stored in a deep freezer (−79.3 to −68.5° C.) until further analysis. On day 73 and 90, about 100 μL of vitreous fluid from G1 and G2 were withdrawn. Presence and concentration of the Cp40-based analogs was determined using either the simple western technology (WES, ProteinSimple, San Jose, Calif.), or surface plasmon resonance (SPR)-based real-time measurement of binding kinetics on a Cp40-KKK immobilized chip (see detailed methods below). Similar results with regard to the intravitreal residence time and concentration levels of the test compounds were obtained regardless of the quantification method selected.
To quantify the levels of all test compounds in vitreous samples collected at different time points following i.v.t. injection (see FIG. 15), WES analysis was performed on a WES instrument (ProteinSimple, San Jose, Calif.) using a 2 to 40 kDa Separation Module and Anti-Rabbit Detection Module according to the manufacturers' instructions. In brief, undiluted eye vitreous samples were mixed with a Fluorescent Master Mix and heated at 95° C. for 5 min. The samples, blocking reagent, primary antibodies (in house developed anti-Cp40; 1:1000 in blocking reagent), HRP-conjugated secondary antibody (anti-rabbit IgG) and chemiluminescent substrate were pipetted into the plate (part of Separation Module). The used instrument settings were: stacking and separation at 375 V for 27 min; blocking reagent for 30 min, primary and secondary antibody both for 30 min; Luminol/peroxide chemiluminescence detection for ˜15 min (exposures of 5, 15, 30, 60, 120, 240, and 480 s). The resulting electropherograms were evaluated using the Compass software (ProteinSimple, San Jose, Calif.). The following criteria were used to discriminate low peptide signals from background: The peak signal-to-noise (S/N) ratio given by the software must be ≥10, and the peak height/baseline ratio (calculated manually from the peak height and baseline values given by the software) must be equal to or greater than 3. A five-point standard curve of known concentrations (100-2,000 nM) of peptide spiked in rabbit vitreous was used to calculate peptide concentration in the vitreous samples using the Compass software (Compass Software Inc., Atlanta, Ga.). […] Shown in FIG. 15 is a representative standard curve generated using the WES system and bands obtained upon running pre-determined amounts of purified peptide spiked into rabbit vitreous samples.
To corroborate the WES-based measurements for all test compounds, an SPR-based competition assay was developed for detecting Cp40 and Cp40 analogs in biological samples. […] The samples were heated at 95° C. for 5 min. […]

physchem = conditions: pH 7.4, Conc. (solubility in PBS)
[6] = Pharmacokinetics after single i.m. injection; conditions: cynomolgus monkey, in vivo, im, 25 mg/kg
[7] = Pharmacokinetics in NHP plasma after single s.c. injection; conditions: 2 mg/kg, NHP plasma, two animals
[8] = single s.c. 2 mg/kg, listed as Cp40-KK (SUM)

T1 sequence (P01024 23-667 limits assumed): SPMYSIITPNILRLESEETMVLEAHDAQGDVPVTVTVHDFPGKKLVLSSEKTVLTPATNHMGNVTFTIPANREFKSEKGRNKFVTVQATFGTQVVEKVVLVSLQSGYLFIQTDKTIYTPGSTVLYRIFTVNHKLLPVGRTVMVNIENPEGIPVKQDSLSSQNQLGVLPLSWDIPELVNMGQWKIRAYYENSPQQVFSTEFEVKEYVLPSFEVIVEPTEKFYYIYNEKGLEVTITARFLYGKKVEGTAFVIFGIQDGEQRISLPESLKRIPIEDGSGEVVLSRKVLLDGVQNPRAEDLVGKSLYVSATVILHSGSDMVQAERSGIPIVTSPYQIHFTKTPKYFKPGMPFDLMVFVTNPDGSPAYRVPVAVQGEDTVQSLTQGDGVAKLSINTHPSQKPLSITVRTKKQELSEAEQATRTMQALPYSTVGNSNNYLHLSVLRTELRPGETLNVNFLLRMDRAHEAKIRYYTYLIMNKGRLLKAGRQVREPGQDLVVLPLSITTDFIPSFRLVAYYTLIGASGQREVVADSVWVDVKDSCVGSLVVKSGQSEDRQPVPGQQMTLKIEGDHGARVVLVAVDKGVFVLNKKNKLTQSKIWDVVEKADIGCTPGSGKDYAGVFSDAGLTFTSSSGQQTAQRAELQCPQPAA
T1 sequence (P01024 749-1663 partner limits assumed): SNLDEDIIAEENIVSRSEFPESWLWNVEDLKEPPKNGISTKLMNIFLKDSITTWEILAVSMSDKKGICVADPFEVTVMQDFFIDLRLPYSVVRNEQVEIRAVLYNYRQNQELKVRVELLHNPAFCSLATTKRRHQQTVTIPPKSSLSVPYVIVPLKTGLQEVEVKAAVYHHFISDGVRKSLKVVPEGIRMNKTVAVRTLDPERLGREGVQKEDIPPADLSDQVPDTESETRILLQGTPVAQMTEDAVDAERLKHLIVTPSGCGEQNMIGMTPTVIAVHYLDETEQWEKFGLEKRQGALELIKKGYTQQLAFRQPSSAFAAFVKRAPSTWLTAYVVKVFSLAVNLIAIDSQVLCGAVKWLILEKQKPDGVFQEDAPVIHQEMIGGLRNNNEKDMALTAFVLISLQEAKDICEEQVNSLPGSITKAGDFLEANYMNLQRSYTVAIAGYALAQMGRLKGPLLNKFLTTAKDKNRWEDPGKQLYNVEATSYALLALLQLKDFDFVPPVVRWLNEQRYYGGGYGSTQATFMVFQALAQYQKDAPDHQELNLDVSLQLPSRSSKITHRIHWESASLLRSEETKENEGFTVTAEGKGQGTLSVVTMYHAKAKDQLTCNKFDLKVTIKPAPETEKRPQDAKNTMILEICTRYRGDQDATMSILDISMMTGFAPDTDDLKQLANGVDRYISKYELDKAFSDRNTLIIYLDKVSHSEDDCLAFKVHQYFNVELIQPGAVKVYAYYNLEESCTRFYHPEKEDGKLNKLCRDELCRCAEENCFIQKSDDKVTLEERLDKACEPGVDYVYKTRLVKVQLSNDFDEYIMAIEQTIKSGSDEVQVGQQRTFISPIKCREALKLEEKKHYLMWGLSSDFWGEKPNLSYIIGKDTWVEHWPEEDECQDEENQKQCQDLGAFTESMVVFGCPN

Molecule: CC[C@H](C)[C@H](NC(=O)[C@H](N)Cc1ccc(O)cc1)C(=O)N[C@H]1CSSC[C@@H](C(=O)N(C)[C@H](C(=O)N[C@@H](CCCCN)C(N)=O)[C@@H](C)CC)NC(=O)[C@H](CCCNC(=N)N)NC(=O)[C@H](Cc2c[nH]cn2)NC(=O)[C@H](C)NC(=O)CN(C)C(=O)[C@H](Cc2c[nH]c3ccccc23)NC(=O)[C@H](CC(=O)O)NC(=O)[C@H](CCC(N)=O)NC(=O)[C@H](Cc2cn(C)c3ccccc23)NC(=O)[C@H](C(C)C)NC1=O [Cp40-K, DTyr-Ile-[Cys-Val-Trp(Me)-Gln-Asn-Trp-Sar-Ala-His-Arg-Cys]-mIle-Lys-NH2]
kon (human C3b): 1.98e+06 M⁻¹ s⁻¹ | Cp40-K detectable in plasma [1]: 5 µM | complement classical pathway inhibitory activity [2]: inhibitory activity in a dose-dependent manner | pH of the peptide solution in PBS [3]: 7.5

Molecule: CC[C@H](C)[C@H](NC(=O)[C@H](N)Cc1ccc(O)cc1)C(=O)N[C@H]1CSSC[C@@H](C(=O)N(C)[C@H](C(=O)N[C@@H](CCCCN)C(=O)N[C@@H](CCCCN)C(N)=O)[C@@H](C)CC)NC(=O)[C@H](CCCNC(=N)N)NC(=O)[C@H](Cc2c[nH]cn2)NC(=O)[C@H](C)NC(=O)CN(C)C(=O)[C@H](Cc2c[nH]c3ccccc23)NC(=O)[C@H](CC(=O)O)NC(=O)[C@H](CCC(N)=O)NC(=O)[C@H](Cc2cn(C)c3ccccc23)NC(=O)[C@H](C(C)C)NC1=O [Cp40-KK, DTyr-Ile-[Cys-Val-Trp(Me)-Gln-Asn-Trp-Sar-Ala-His-Arg-Cys]-mIle-Lys-Lys-NH2]
kon (human C3b): 3.94e+06 M⁻¹ s⁻¹ | Lys cleavage in plasma upon i.v. injection [4]: metabolized to minimal amounts of Cp40-K | half-life ([4]; single i.v. injection 2 mg/kg): 49.2 h | detection in the vitreous at time points post-injection [5]: no longer detected on day 90 | complement classical pathway inhibitory activity [2]: inhibitory activity in a dose-dependent manner | solubility (physchem): > 245 mg/mL | half-life [6]: ~192 h | AUC(0-t) ([7]; male, cynomolgus monkey, plasma, sc, AUC0-t (0-120 h), single s.c. 2 mg/kg): 329 µM·h | AUC(0-inf) ([7]; male, cynomolgus monkey, plasma, sc, AUCinf, single s.c. 2 mg/kg): 597 µM·h | Cmax ([7]; male, cynomolgus monkey, plasma, sc, Cmax, single s.c. 2 mg/kg): 12.9 µM | half-life ([7]; male, cynomolgus monkey, plasma, sc, t1/2, single s.c. 2 mg/kg): 145 h | Tmax ([7]; male, cynomolgus monkey, plasma, sc, tmax, single s.c. 2 mg/kg): 1 h | t1/2 ([7]; single s.c. 2 mg/kg): 276 h | AUC0-t (0-120 h) [7, 8]: 257 µM·h | AUCinf [7, 8]: 755 µM·h | Cmax [7, 8]: 9.26 µM

kon (human C3b): 1e+06 M⁻¹ s⁻¹
Molecule: CC[C@H](C)[C@H](NC(=O)[C@@H](Cc1ccc(O)cc1)NC(=O)CCOCCOCCOCCOCCOCCOCCOCCOCCOCCOCCOCCOC)C(=O)N[C@H]1CSSC[C@@H](C(=O)N(C)[C@H](C(N)=O)[C@@H](C)CC)NC(=O)[C@H](CCCNC(=N)N)NC(=O)[C@H](Cc2c[nH]cn2)NC(=O)[C@H](C)NC(=O)CN(C)C(=O)[C@H](Cc2c[nH]c3ccccc23)NC(=O)[C@H](CC(=O)O)NC(=O)[C@H](CCC(N)=O)NC(=O)[C@H](Cc2cn(C)c3ccccc23)NC(=O)[C@H](C(C)C)NC1=O [mPEG(528)-Cp40]
solubility [3]: 2.3 mg/mL (≈ 0.975 mM)

kon (human C3b): 720000 M⁻¹ s⁻¹
Molecule: CC[C@H](C)[C@H](NC(=O)[C@@H](Cc1ccc(O)cc1)NC(=O)CCOCCOCCOCCOCCOCCOCCOCCOCCOCCOCCOCCOCCOCCOCCOCCOCCOCCOCCOCCOCCOCCOCCOCCOC)C(=O)N[C@H]1CSSC[C@@H](C(=O)N(C)[C@H](C(N)=O)[C@@H](C)CC)NC(=O)[C@H](CCCNC(=N)N)NC(=O)[C@H](Cc2c[nH]cn2)NC(=O)[C@H](C)NC(=O)CN(C)C(=O)[C@H](Cc2c[nH]c3ccccc23)NC(=O)[C@H](CC(=O)O)NC(=O)[C@H](CCC(N)=O)NC(=O)[C@H](Cc2cn(C)c3ccccc23)NC(=O)[C@H](C(C)C)NC1=O [mPEG(1056)-Cp40]
solubility [3]: 137 mg/mL (≈ 47.4 mM)

Molecule: mPEG(1k)-Cp40: N-terminus of Cp40 coupled to polydisperse PEG chain of 1 kDa via amide coupling
AUC0-120 h [4]: 304.4 to 312 µM·h | detection in the vitreous at time points post-injection [5]: detected at day 14 post injection but not in later time points

Molecule: mPEG(2k)-Cp40: N-terminus of Cp40 coupled to polydisperse PEG chain of 2 kDa via amide coupling
pH of the peptide solution in PBS [3]: 7.5
